Measurements reported in patent US9474911B2, “Delivery of large molecular weight biologically active substances” (PhotoKinetix Holdings Inc., priority 2011, dated 2016).
Like-named read-outs stand apart in the source and are kept apart here.

Key:
[1] = 24 hours
[2] = 450 nm light pulsed at 100 cps; 24 hours; p<0.05
[3] = diabetic rats; photokinetic delivery (Kulp et al., 2010); cited from earlier work

## HGH: Human growth hormone with a molecular weight of 22,124 Da
[1]; 350, 390, 405 and 450 nm at 24 cps, donor 270 ng/ml, p<0.001
  transdermal permeation flux of HGH, photokinetic compared to passive permeation: significantly increased

## Hyaluronic acid [2,100 kDa hyaluronic acid]
[1]; 390, 405 and 450 nm at 24 cps and 405 nm at 100 cps, p<0.05
  transdermal flux rate, photokinetic compared to passive permeation control: significantly higher than passive permeation control samples
[1]; 390 nm, 405 nm and 436 nm light, p<0.05
  transdermal flux rate, 24 cps compared to 100 cps: significantly higher than 390 nm, 405 nm, and 436 nm light pulsed at 100 cps

## Hyaluronic acid [69 kDa hyaluronic acid]
[1]; 405 nm light, p<0.05
  transdermal flux rate, 24 cps compared to 100 cps: significantly higher than 405 nm light pulsed at 100 cps
[1]
  transdermal flux rate, photokinetic compared to passive permeation: significantly higher than passive permeation
[2]
  intradermal deposition, photokinetic compared to passive control: significantly higher intradermal deposition

## insulin: insulin, molecular weight of about 5,730 Da
[3]
  blood sugar levels: blood sugar levels were reduced
